Test results as given in patent US20110097274A1, “Carbon-11 and fluorine-18 labeled radioligands for positron emission tomography (PET) imaging for the brain serotonin transporters” (priority 2002, published 2011).

Experiments:
SERT [1] = conditions: literature; cited from earlier work
[2] = Biodistribution of labeled radioligands in male Sprague-Dawley rats; type: in vivo; conditions: mean ± SD, n = 3
From the text: Appropriately labeled compounds were studied in animals to assess their binding characteristics in the brain. Procedures for these biodistribution studies are as follows. […] The brain regions (cerebellum, hippocampus, striatum, frontal cortex, thalamus and hypothalamus), along with samples of blood and part of the tail, were removed, weighed, and counted in a Packard Cobra II gamma counter. The percent injected dose (% ID) of the decay- and tail-corrected activity in the brain regions and blood were calculated based upon C-11 standards prepared from the injection solution, and the % ID/g were calculated using the tissue weights.

[3] = Experiment 5: plasma clearance of ^11C and ^18F labeled AFM, AFA, AFE in one baboon; type: in vivo; conditions: one adult male baboon, n = 1 to 4 scans
Experimental: (§1) General scanning methods were as described in Huang et al. (2002). Arterial input function was measured and corrected for metabolites.

SERT [4] = test: Experiment 5: PET brain imaging of ^11C and ^18F labeled AFM, AFA, AFE in one baboon; type: in vivo; conditions: one adult male baboon, n = 1 to 4 scans, two-compartment model
Experimental: as §1
Activity distributed in the brain in accordance to the known density distribution pattern of SERT (Laruelle et al., 1988). […] Data were analyzed with a two-compartment model, using the metabolite-corrected arterial time-activity curve as input function. This analysis provided the regional distribution volumes (VT, mL/g).
The nonspecific distribution volume, measured as the distribution volume of the cerebellum (a region with negligible SERT density) was in a similar range for all tracers (10 to 30 mL/g, Table 16).
The specific to nonspecific partition coefficient, V3″, was calculated as the ratio of VT in the region of interest (ROI) to cerebellum VT minus one. V3″ provides a measure related to receptor parameters as follows: […]

SERT [5] = conditions: same baboon, one tissue compartment model
Experimental: The animal was then injected with [^18F]AFM (2.60 mCi, 425 Ci/mmol, 1.51 μg) and scanned for 90 minutes. Analysis of the input function and brain uptake was performed as described in the previous section. […] Arterial activity was corrected for parent fraction to form the input function.
Data were analyzed with a one tissue compartment model.

[6] = Experiment 4: plasma analysis, [^11C]AFM and [^18F]AFM in the same baboon
Experimental: The animal was then injected with [^18F]AFM (2.60 mCi, 425 Ci/mmol, 1.51 μg) and scanned for 90 minutes. […] Arterial activity was corrected for parent fraction to form the input function.

In the case of CN(C)Cc1ccccc1Sc1ccc(C#N)cc1N [[^11C]DASB], the Kd (SERT [1]) is listed as 1.1 nM.
For CN([11CH3])Cc1ccccc1Sc1ccc(CF)cc1N [[^11C]AFM, [^11C]2-[2-(Dimethylaminomethyl)phenylthio]-5-fluoromethylphenylamine], the “% ID/g Blood” value ([2]; 10 min post-injection) was 0.37 ± 0.28 % ID/g, the “% ID/g Cerebellum” value ([2]; 10 min post-injection) was 0.40 ± 0.06 % ID/g and the “% ID/g Frontal Ctx.” value ([2]; 10 min post-injection) was 0.99 ± 0.25 % ID/g. The “% ID/g Hippocamp.” value ([2]; 10 min post-injection) was 0.59 ± 0.14 % ID/g, the “% ID/g Hypothal.” value ([2]; 10 min post-injection) was 0.75 ± 0.19 % ID/g and the “% ID/g Striatum” value ([2]; 10 min post-injection) was 0.72 ± 0.17 % ID/g. For the same compound, the “% ID/g Thalamus” value ([2]; 10 min post-injection) was 0.79 ± 0.15 % ID/g, the “% ID/g Blood” value ([2]; 30 min post-injection) was 0.28 ± 0.01 % ID/g and the “% ID/g Cerebellum” value ([2]; 30 min post-injection) was 0.41 ± 0.11 % ID/g. For the same compound, the “% ID/g Frontal Ctx.” value ([2]; 30 min post-injection) was 1.31 ± 0.28 % ID/g, the “% ID/g Hippocamp.” value ([2]; 30 min post-injection) was 0.95 ± 0.29 % ID/g and the “% ID/g Hypothal.” value ([2]; 30 min post-injection) was 1.37 ± 0.48 % ID/g. For the same compound, the “% ID/g Striatum” value ([2]; 30 min post-injection) was 1.12 ± 0.21 % ID/g, the “% ID/g Thalamus” value ([2]; 30 min post-injection) was 1.18 ± 0.30 % ID/g and the “% ID/g Blood” value ([2]; 60 min post-injection) was 0.19 ± 0.03 % ID/g. The “% ID/g Cerebellum” value ([2]; 60 min post-injection) was 0.21 ± 0.04 % ID/g, the “% ID/g Frontal Ctx.” value ([2]; 60 min post-injection) was 1.37 ± 0.10 % ID/g and the “% ID/g Hippocamp.” value ([2]; 60 min post-injection) was 0.84 ± 0.10 % ID/g. The “% ID/g Hypothal.” value ([2]; 60 min post-injection) was 1.27 ± 0.16 % ID/g, the “% ID/g Striatum” value ([2]; 60 min post-injection) was 1.02 ± 0.15 % ID/g and the “% ID/g Thalamus” value ([2]; 60 min post-injection) was 1.29 ± 0.22 % ID/g. The Clearance [3] was 47 ± 11 L/h, the “Cerebellum V (nonspecific distribution volume)” value (SERT [4]) was 32 ± 6 mL/g and the “Thalamus V3″” value (SERT [5]) was 2.26. The “Clearance of the parent compound” value [6] was 31 L/h, the “Percent plasma activity corresponding to the parent compound” value (“Percent plasma activity corresponding” for short) ([6]; 2 minutes) was 75.6% and the “Percent plasma activity corresponding” value ([6]; 4 minutes) was 55.4%. For the same compound, the “Percent plasma activity corresponding” value ([6]; 12 minutes) was 21.4%, the “Percent plasma activity corresponding” value ([6]; 30 minutes) was 9.4% and the “Percent plasma activity corresponding” value ([6]; 60 minutes) was 6.4%. The “Percent plasma activity corresponding” value ([6]; 90 minutes) was 6.7%.
